Laboratory results taken from ChEMBL document CHEMBL4017442, “Recent updates of carbapenem antibiotics” (Eur J Med Chem, 2017).

Tests used:
Staphylococcus aureus [1] = experiment: Potentiation of imipenem-induced antibacterial activity against methicillin-reisitant Staphylococcus aureus assessed as fold reduction in imipenem MIC at 10 ug/ml measured after 20 hrs by liquid microdilution method relative to imipenem alone; assay type: functional
Staphylococcus aureus [2] = experiment: Potentiation of imipenem-induced antibacterial activity against methicillin-reisitant Staphylococcus aureus assessed as imipenem MIC (reference value: 16 ug/ml); assay type: functional
Blood [3] = experiment: Drug uptake in end-stage renal disease patient blood at 0.5 g, iv; assay type: ADME, tissue-based; conditions: human
Blood [4] = experiment: Drug uptake in end-stage renal disease patient blood at 0.75 g, iv; assay type: ADME, tissue-based; conditions: human
[5] = Elimination half life in human at 1 g, iv administered as single dose; assay type: ADME, organism-based; conditions: in vivo, read-out: beta t1/2 (converted)
Plasma = experiment: Protein binding in human plasma at < 50 ug/ml; assay type: ADME, cell-free
Mus musculus = experiment: Anti-inflammatory activity in mouse model of CLP-induced sepsis assessed as survival time at 25 ug/g, sc in presence of atorvastatin (reference value: 20 +/- 1.66 hrs); assay type: functional
[6] = Half life in iv dosed human; assay type: ADME, organism-based; conditions: in vivo
[7] = Ratio of drug level in serum to cerebrospinal fluid in human; assay type: ADME
[8] = Clearance in end-stage renal disease patient undergoing drug hydrolysis; assay type: ADME; conditions: human
[9] = Clearance in end-stage renal disease patient without drug hydrolysis; assay type: ADME; conditions: human

C=C/C(C)=C/C[C@@H]1[C@@]2(C)CCCC(C)(C)[C@@H]2C[C@H](O)[C@]1(O)CSC[C@H](NC(C)=O)C(=O)OC
fold change (FC) (Staphylococcus aureus [1]): 533

C=C/C(C)=C/C[C@@H]1[C@@]2(C)CCCC(C)(C)[C@@H]2C[C@H](O)[C@]1(O)CSC[C@H](NC(C)=O)C(=O)O
MIC (Staphylococcus aureus [2]): 0.05 µg/mL

C=C/C(C)=C/C[C@@H]1[C@@]2(C)CCC[C@](C)(CO)[C@@H]2C[C@H](O)[C@]1(O)CSC[C@H](NC(C)=O)C(=O)O
fold change (FC) (Staphylococcus aureus [1]): 123

O=C(O)CCNC(=O)c1ccccc1 [BETAMIPRON]
Drug uptake (Blood [3]): 24 mg/L
Drug uptake (Blood [4]): 39 mg/L

C[C@@H](O)[C@H]1C(=O)N2C(C(=O)O)=C(S[C@@H]3CN[C@H](C(=O)Nc4cccc(C(=O)O)c4)C3)[C@H](C)[C@H]12 [ERTAPENEM]
half-life [5]: 4 h
PPB (Plasma): 94%

C[C@@H](O)[C@H]1C(=O)N2C(C(=O)O)=C(SCCNC=N)C[C@H]12 [IMIPENEM ANHYDROUS]
Survival (Mus musculus): 56 h
half-life [6]: 1 h

CC(=N)N1CC[C@H](SC2=C(C(=O)O)N3C(=O)[C@H]([C@@H](C)O)[C@H]3C2)C1 [PANIPENEM]
Ratio [7]: 8
clearance [8]: 159 mL/min
Drug uptake (Blood [3]): 37 mg/L
clearance [9]: 48.7 mL/min
Drug uptake (Blood [4]): 61 mg/L
half-life [6]: 1.2 h
